The values below are quoted from earlier work in US8722101B2, “Use of iron(III) complex compounds” (Vifor (International) AG, priority 2005, dated 2014).

The conditions of the series: children with iron-related anaemia; administration for 75 days.

In the case of `O=S(=O)([O-])[O-].[Fe+2]` [iron sulfate], the “improvement in the mental and psychomotor development” value is given as “did not find any improvement”.
